Results reported in patent US7605272B2, “IGF-1R inhibitor” (Kyowa Hakko Kirin Co., Ltd., priority 2005, dated 2009).

What was measured:
IGF-1R = target: T1, IGF-1R (Homo sapiens, UniProt P08069); assay: IGF-1R inhibitory activity (kinase reaction, time-resolved fluoroimmunoassay); type: biochemical; details: IGF-1R active recombinant enzyme, test compound 10 μmol/L
T1 construct: purchased Upstate Co. 14-465
How it was run: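 Compounds were tested at a single 10 μmol/L concentration. Each was incubated with recombinant IGF-1R (200 μg/L), 10 mmol/L ATP, MgCl2/MnCl2 and Na3VO4 (pH 7.5) on immobilized poly(Glu-Tyr) peptide for 30 min at 24° C. Eu-anti-phosphotyrosine time-resolved fluorescence (340/615 nm) gave relative activity against no-compound and no-enzyme wells, reported as % inhibition.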

NCI-H929 = assay: Cytostatic activity on human multiple myeloma cell line NCI-H929 (WST-1); type: cell-based; details: NCI-H929 cells, test compound 1 μmol/L, WST-1; for inhibition at 1 µM: Homo sapiens, NCI-H929, 72 h, read-out: cytostatic rate (%) H929 (1 μmol/L)
How it was run: (§1)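 Cells pre-cultured 24 h at 37 °C, 5% CO2, then exposed 72 h to compound at final 1 or 10 μmol/L (0.1% DMSO). WST-1 added for 2 h, absorbance at 450 nm (ref 690 nm). Cytostatic rate = 100 minus relative growth, with DMSO control as 100% and blank as 0%.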

KMS-11 = assay: Cytostatic activity on human multiple myeloma cell line KMS-11 (WST-1); type: cell-based; details: KMS-11 cells, test compound 1 μmol/L, WST-1; for inhibition at 1 µM: Homo sapiens, KMS-11, 72 h, read-out: cytostatic rate (%) KMS-11 (1 μmol/L)
How it was run: as §1

T1 sequence (P08069 959-1367 limits assumed): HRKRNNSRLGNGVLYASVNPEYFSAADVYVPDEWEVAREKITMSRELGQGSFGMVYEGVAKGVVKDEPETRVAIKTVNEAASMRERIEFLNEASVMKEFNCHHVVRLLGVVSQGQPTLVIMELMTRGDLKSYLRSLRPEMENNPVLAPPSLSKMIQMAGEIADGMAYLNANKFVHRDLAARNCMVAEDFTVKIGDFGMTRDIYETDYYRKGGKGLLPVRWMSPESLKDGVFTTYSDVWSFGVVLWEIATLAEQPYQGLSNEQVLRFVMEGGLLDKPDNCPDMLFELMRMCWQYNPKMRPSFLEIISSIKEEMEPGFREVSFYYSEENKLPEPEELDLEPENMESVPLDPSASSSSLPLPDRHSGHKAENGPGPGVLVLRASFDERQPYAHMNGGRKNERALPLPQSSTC

inhibition at 10 µM (IGF-1R) [%] | inhibitory activity (%) at 10 μmol/L (IGF-1R) [%] | Compound | inhibition at 1 µM (NCI-H929) [%] | inhibition at 1 µM (KMS-11) [%] | cytostatic rate (%) H929 (1 μmol/L) (NCI-H929) [%] | cytostatic rate (%) KMS-11 (1 μmol/L) (KMS-11) [%]
104 | – | Cc1ccsc1C(=O)Nc1cc(CN2CCC(CCO)CC2)ccc1/C=C/c1n[nH]c2ccccc12 [Compound 311, (E)-N-{5-[4-(2-hydroxyethyl)piperidin-1-ylmethyl]-2-[2-(1H-indazol-3-yl)vinyl]phenyl}-3-methylthiophene-2-carboxamide] | 117 | 111 | – | –
– | 100.7 | CC(=O)CCN1CCN(Cc2ccc(/C=C/c3n[nH]c4ccccc34)c(NC(=O)c3sccc3C)c2)CC1 [Compound 313, (E)-{2-[2-(1H-indazol-3-yl)vinyl]-5-[4-(3-oxobutyl)piperazin-1-ylmethyl]phenyl}-3-methylthiophene-2-carboxamide] | – | – | 115.2 | 107.9
– | 100.4 | Cc1ccsc1C(=O)Nc1cc(CN2CCN(CCN3CCOCC3)CC2)ccc1/C=C/c1n[nH]c2ccccc12 [Compound 319] | – | – | 122.4 | 102.6
– | 102.1 | CON(C)C(=O)c1ccc(/C=C/c2n[nH]c3ccccc23)c(NC(=O)c2sccc2C)c1 [Compound 320, (E)-{2-[2-(1H-indazol-3-yl)vinyl]-5-(N-methoxy N-methylcarbamoyl)phenyl}-3-methyl-2-carboxamide] | – | – | 122.8 | 112.1
99.1 | – | Cc1ccsc1C(=O)Nc1cc(CN2CCC(CCC(C)(C)O)CC2)ccc1/C=C/c1n[nH]c2ccccc12 [Compound 322, (E)-N-{5-[4-(3-hydroxy-3-methylbutyl)piperidin-1-ylmethyl]-2-[2-(1H-indazol-3-yl)vinyl]phenyl}-3-methylthiophene-2-carboxamide] | 122 | 106 | – | –
97.9 | – | Cc1ccsc1C(=O)Nc1cc(C(=O)N(C)C2CCN(C)CC2)ccc1/C=C/c1n[nH]c2ccccc12 [Compound 328, (E)-N-{2-[2-(1H-indazol-3-yl)vinyl]-5-[N-methyl-N-(1-methylpiperidin-4-yl)carbamoyl]phenyl}-3-methylthiophene-2-carboxamide] | 116 | 105 | – | –
105 | – | Cc1ccsc1C(=O)Nc1cc(CN2CCN(C)C(=O)C2)ccc1/C=C/c1n[nH]c2ccccc12 [Compound 329, (E)-N-{2-[2-(1H-indazol-3-yl)vinyl]-5-(4-methyl-3-oxopiperazine-1-ylmethyl)phenyl}-3-methylthiophene-2-carboxamide] | 132 | 116 | – | –
102 | – | Cc1ccsc1C(=O)Nc1cc(CN2CC[C@@H](O)C2)ccc1/C=C/c1n[nH]c2ccccc12 [Compound 330, (R)-(E)-N-{5-(3-hydroxypyrrolidin-1-ylmethyl)-2-[2-(1H-indazol-3-yl)vinyl]phenyl}-3-methylthiophene-2-carboxamide] | 131 | 112 | – | –
103 | – | Cc1ccsc1C(=O)Nc1cc(CN2CCNC[C@H]2C)ccc1/C=C/c1n[nH]c2ccccc12 [Compound 331, (R)-(E)-N-{2-[2-(1H-indazol-3-yl)vinyl]-5-(2-methylpiperazin-1-ylmethyl)phenyl}-3-methylthiophene-2-carboxamide] | 116 | 102 | – | –
101 | – | Cc1ccsc1C(=O)Nc1cc(CN2CCNC[C@@H]2C)ccc1/C=C/c1n[nH]c2ccccc12 [Compound 336, (E)-(S)—N-{2-[2-(1H-indazol-3-yl)vinyl]-5-(2-methylpiperazin-1-ylmethyl)phenyl}-3-methylthiophene-2-carboxamide] | 131 | 115 | – | –

Further lines, the compound ahead of its results:

Compound | inhibition at 10 µM (IGF-1R) [%] | inhibitory activity (%) at 10 μmol/L (IGF-1R) [%] | inhibition at 1 µM (NCI-H929) [%] | inhibition at 1 µM (KMS-11) [%] | cytostatic rate (%) H929 (1 μmol/L) (NCI-H929) [%] | cytostatic rate (%) KMS-11 (1 μmol/L) (KMS-11) [%]
CN1CCN(C(=O)c2ccc(/C=C/c3n[nH]c4ccccc34)c(N3C(=O)c4cccc(N)c4C3=O)c2)CC1 [Compound 315, (E)-4-amino-2-{2-[2-(1H-indazol-3-yl)vinyl]-5-(4-methylpiperazin-1-ylcarbonyl)phenyl}isoindole-1,3-dione] | 106 | – | 113 | 106 | – | –
Nc1cccc2c1C(=O)N(c1cc(C(=O)N3CCC(N4CCOCC4)CC3)ccc1/C=C/c1n[nH]c3ccccc13)C2=O [Compound 317, (E)-4-amino-2-{2-[2-(1H-indazol-3-yl)vinyl]-5-[4-(morpholin-4-yl)piperidin-1-ylcarbonyl]phenyl}isoindole-1,3-dione] | 103 | – | 114 | 105 | – | –
COCCCN1CCN(Cc2ccc(/C=C/c3n[nH]c4ccccc34)c(N3Cc4c(N)cccc4C3=O)c2)CC1 [Compound 321, (E)-4-amino-2-{5-[4-(3-methoxypropyl)piperazin-1-ylmethyl]-2-[2-(1H-indazol-3-yl)vinyl]phenyl}-2,3-dihydroisoindole-1-one] | 101 | – | 122 | – | – | 102.3
COCCCN1CCN(Cc2ccc(/C=C/c3n[nH]c4ccccc34)c(N3Cc4c(N)cccc4C3=O)c2)CC1 [Compound 323, (E)-4-amino-2-{2-[2-(1H-indazol-3-yl)vinyl]-5-[4-(3-methoxypropyl)piperazin-1-ylmethyl]phenyl}-2,3-dihydroisoindol-1-one] | – | 105.8 | – | – | 107.6 | 73.8
COC1CCN(C(=O)c2ccc(/C=C/c3n[nH]c4ccccc34)c(N3C(=O)c4cccc(N)c4C3=O)c2)CC1 [Compound 325] | – | 100.2 | – | – | 118.4 | 100.1
CN(C)C(=O)c1ccc(/C=C/c2n[nH]c3ccccc23)c(N2C(=O)c3cccc(N)c3C2=O)c1 [Compound 326, (E)-3-(4-amino-1,3-dioxo-1,3-dihydroisoindol-2-yl)-4-[2-(1H-indazol-3-yl)vinyl]-N,N-dimethylbenzamide] | 103 | – | 118 | 102 | – | –
Cc1ccsc1C(=O)Nc1cc(C(=O)N(C)CCO)ccc1/C=C/c1n[nH]c2ccccc12 [Compound 327, (E)-N-{5-[N-(2-hydroxyethyl)-N-methylcarbamoyl]-2-[2-(1H-indazol-3-yl)vinyl]phenyl}-3-methylthiophene-2-carboxamide] | 101 | – | 116 | 98 | – | –
Cn1cccc1C(=O)Nc1cc(CN2CCNCC2)ccc1/C=C/c1n[nH]c2ccccc12 [Compound 332] | – | 102.6 | – | – | 113.9 | 89.9
COc1c(OCC(=O)N2CCN(C)CC2)ccc(/C=C/c2n[nH]c3ccccc23)c1NC(=O)c1sccc1C [Compound 333, (E)-N-{6-[2-(1H-indazol-3-yl)vinyl]-2-methoxy-3-[2-(4-methylpiperazin-1-yl)-2-oxoethoxy]phenyl}-3-methylthiophene-2-carboxamide] | 109 | – | 118 | 119 | – | –
COc1c(OCCN2C(=O)CNC2=O)ccc(/C=C/c2n[nH]c3ccccc23)c1NC(=O)c1sccc1C [Compound 334, (E)-N-{6-[2-(1H-indazol-3-yl)vinyl]-2-methoxy-3-[2-(2,5-dioxoimidazolidin-1-yl)ethoxy]phenyl}-3-methylthiophene-2-carboxamide] | 102 | – | 111 | 97.5 | – | –
COc1c(OCC(=O)N2CCOCC2)ccc(/C=C/c2n[nH]c3ccccc23)c1NC(=O)c1sccc1C [Compound 335, (E)-N-{6-[2-(1H-indazol-3-yl)vinyl]-2-methoxy-3-(2-morpholin-4-yl-2-oxoethoxy)phenyl}-3-methylthiophene-2-carboxamide] | 102 | – | 117 | 110 | – | –
COc1c(OCCN2CCCC2=O)ccc(/C=C/c2n[nH]c3ccccc23)c1NC(=O)c1sccc1C [Compound 337, (E)-N-{6-[2-(1H-indazol-3-yl)vinyl]-2-methoxy-3-[2-(2-oxopyrrolidin-1-yl)ethoxy]phenyl}-3-methylthiophene-2-carboxamide] | 97.4 | – | 120 | 121 | – | –
CCCS(=O)(=O)NCCOc1ccc(/C=C/c2n[nH]c3ccccc23)c(NC(=O)c2sccc2C)c1OC [Compound 338, (E)-N-{6-[2-(1H-indazol-3-yl)vinyl]-2-methoxy-3-[2-(propylsulfonylamino)ethoxy]phenyl}-3-methylthiophene-2-carboxamide] | 99 | – | 120 | 122 | – | –
CCN(CCO)CCCOc1ccc(/C=C/c2n[nH]c3ccccc23)c(NC(=O)c2sccc2C)c1OC [Compound 339, (E)-N-{3-{3-[N-ethyl(2-hydroxyethyl)amino]propoxy}-6-[2-(1H-indazol-3-yl)vinyl]-2-methoxyphenyl}-3-methylthiophene-2-carboxamide] | 104 | – | 119 | 118 | – | –
